{
  "source": "patent US10512656B2",
  "about": "“Compositions and methods for the treatment of lysosomal storage disorders and disorders characterized by lysosomal dysfunction” (Baylor College of Medicine, priority 2016, dated 2019)",
  "key": {"[1]": {"test_system": "TFEB", "assay": "TFEB nuclear translocation in cells expressing constitutively active Akt (Akt-DD)", "type": "cell-based, human", "settings": "24 h", "description": "FIG. 16. Trehalose controls Akt regulation of TFEB in a GSK3β-independent manner. (a) HeLa cells were treated with trehalose for 24 h or left untreated. Immunoblot analyses were used to evaluate levels of GSK33 and its phosphorylation status. GAPDH was used as a loading control. (b) HeLa cells were cotransfected with TFEB-3×Flag and constitutively active GSK3β (CA-GSK3β), treated with trehalose or MK2206 for 24 h, and examined by immunofluorescence labeling for Flag (red) and GSK3β (green). Scale bar is 20 […]. (c) HeLa cells were cotransfected with TFEB-3×Flag and constitutively active Akt (Akt-DD), treated with the GSK3β inhibitor CHIR99021 for 24 h, and examined by immunofluorescence labeling for Flag (red) and Akt (green). Scale bar is 20 μm."}, "[2]": {"test_system": "TFEB", "assay": "TFEB nuclear translocation in HeLa/TFEB cells", "type": "cell-based, human", "settings": "confocal microscopy and subcellular fractionation", "description": "Control (Coriell Institute, USA) and JNCL fibroblasts (Gaslini Institute, Italy) were grown in DMEM (1:1, HyClone) supplemented with 10% heat-inactivated fetal bovine serum (FBS, Atlanta Biologicals), 2 mM L-glutamine, 100 U/ml penicillin and […] streptomycin (Invitrogen). HeLa cells were incubated for 2 h with LY294002 ([…], Cell Signaling), Torin 1 (300 nM, Cayman Chemical) or for 24 h with trehalose (100 mM, Sigma), rapamycin (300 nM, Sigma), MK2206 (1 μM, Selleckchem), U0126 ([…], Tocris) and dialyzed serum (GE Healthcare Life Sciences) for 30 min. For immunofluorescence assay, cells were grown on coverslips in 24-well plates. After the treatment, cells were washed with PBS and fixed with methanol for 10 min. Cells were then blocked with blocking reagent (0.1% saponin, 10% bovine serum in PBS) for 1 h and incubated with appropriate primary antibody(s) (1:100) for 3 h at room temperature. After three washes with PBS, the cells were incubated with appropriate secondary antibodies (1:500) for 1 h at room temperature. Coverslips were then mounted with vectashield containing 4,6-diamidino-2-phenylindole (H-1200) for imaging via confocal microscopy. Cell pellets were resuspended in lysis buffer (10 mM Hepes pH 7.9, 10 mM KCl, 0.1 mM EDTA and 0.4% Nonidet P40) with inhibitors by pipetting and kept in ice for 30 min. After 1 min of spin at full speed, the supernatant was collected as cytosolic fraction. The pellet was washed twice with lysis buffer and resuspended with nuclear buffer (20 mM Hepes pH 7.9, 0.4M NaCl and 1 mM EDTA) containing phosphatases and proteases inhibitors. After 15 min of vigorous shaking on an Eppendorf shaker, the pellet was spun down at full speed for 10 min. The supernatant was used as the nuclear fraction."}, "[3]": {"test_system": "Batten mice (Cln3 KO mice)", "assay": "Astrogliosis (GFAP-positive cells)", "type": "in vivo, mouse", "description": "(§1) Batten mice (Cln3 KO mice) were administered trehalose, a low dose of miglustat, a high dose of miglustat, or a combination of trehalose and miglustat. Two controls were used in these experiments: (1) untreated Batten mice, and (2) untreated wild type mice. Neuronal cell death (measured by the density (no. of cells/area) of CAS-3 positive cells), neuroinflammation (measured by the number of GFAP-positive astrocyte cells in the neuronal system), and macrophage infiltration into the nervous system (measured by the % area of CD68) were measured."}, "[4]": {"test_system": "Batten mice (Cln3 KO mice)", "assay": "Macrophage infiltration (% area of CD68)", "type": "in vivo, mouse", "description": "as §1"}, "[5]": {"test_system": "Batten mice (Cln3 KO mice)", "assay": "Neuronal cell death (density of CAS-3 positive cells)", "type": "in vivo, mouse", "description": "as §1"}, "[6]": {"biological_target": "TFEB-3×FLAG (transcription factor EB, wild type, Flag-tagged) (UniProt P19484)", "sequence (P19484 whole entry)": "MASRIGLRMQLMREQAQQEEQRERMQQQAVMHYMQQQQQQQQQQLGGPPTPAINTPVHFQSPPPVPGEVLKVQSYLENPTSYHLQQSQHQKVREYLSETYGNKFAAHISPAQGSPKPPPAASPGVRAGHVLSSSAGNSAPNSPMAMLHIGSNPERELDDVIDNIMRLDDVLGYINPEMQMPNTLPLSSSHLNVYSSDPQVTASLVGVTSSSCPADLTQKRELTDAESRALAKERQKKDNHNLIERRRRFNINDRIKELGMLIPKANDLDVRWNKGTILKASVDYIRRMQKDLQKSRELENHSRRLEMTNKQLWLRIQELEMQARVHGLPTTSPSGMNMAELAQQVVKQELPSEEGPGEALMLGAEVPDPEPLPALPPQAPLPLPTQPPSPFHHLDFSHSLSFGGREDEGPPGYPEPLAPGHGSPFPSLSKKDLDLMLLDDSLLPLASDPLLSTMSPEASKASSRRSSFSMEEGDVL"}, "[7]": {"settings": "all miglustat-treated Batten mice"}, "[8]": {"settings": "all miglustat-treated mice, P<0.05"}},
  "data": [
    {"molecule": "Cc1c[nH]c(-c2cnc(NCCNc3ccc(C#N)cn3)nc2-c2ccc(Cl)cc2Cl)n1", "note": "[CHIR-99021]", "values": [
      {"measurement": "TFEB nuclear translocation", "setting": "[1]", "result": "promoted nuclear translocation of TFEB"}
    ]},
    {"molecule": "CCC(=O)N1CCN(c2ccc(-n3c(=O)ccc4cnc5ccc(-c6cnc7ccccc7c6)cc5c43)cc2C(F)(F)F)CC1", "note": "[Torin 1]", "values": [
      {"measurement": "TFEB nuclear translocation on kinase inhibitors", "setting": "[2]", "result": "TFEB nuclear translocation"}
    ]},
    {"molecule": "CCCCN1C[C@H](O)[C@@H](O)[C@H](O)[C@H]1CO", "note": "[miglustat]", "values": [
      {"measurement": "astrogliosis vs wild-type mice", "setting": "[3]; [7]", "result": "indistinguishable from the wild-type mice"},
      {"measurement": "GFAP-positive cells vs untreated Batten mice", "setting": "[3]; [8]", "result": "less GFAP-positive cells"},
      {"measurement": "macrophage infiltration vs wild-type mice", "setting": "[4]; [7]", "result": "indistinguishable from the wild-type mice"},
      {"measurement": "macrophage infiltration vs untreated Batten mice", "setting": "[4]; [8]", "result": "less macrophage infiltration"},
      {"measurement": "neuronal cell death vs wild-type mice", "setting": "[5]; [7]", "result": "indistinguishable from the wild-type mice"},
      {"measurement": "neuronal cell death vs untreated Batten mice", "setting": "[5]; low dose, high dose, or combined with trehalose, P<0.05", "result": "less neuronal cell death"}
    ]},
    {"molecule": "purified, active AKT1 enzyme (SignalChem)", "values": [
      {"measurement": "in vitro Akt kinase assay ([32P]ATP, autoradiography)", "setting": "[6]", "result": "Akt phosphorylates purified TFEB"}
    ]}
  ]
}
